Reference: publication PMC3207901, “Nodulin 41, a novel late nodulin of common bean with peptidase activity” (BMC Plant Biology, 2011)
Where a SMILES comes first, the peptide text is derived from it. [ ]: non-standard residue; d: D form. The star is where a group is joined. Sta = CC(C)C[C@H](N)[C@@H](O)CC(=O)O; Isovaleryl = CC(C)CC(=O)*

Target: T1, PvNod41 (nodulin 41) (Phaseolus vulgaris, UniProt G1FTR5)
T1 construct: gene Nod41; native mature enzyme purified from 21 dpi root nodules; 437-residue precursor, 22-residue putative signal peptide and 50-residue prosegment removed; single chain, 41 kDa on SDS-PAGE
T1 sequence (G1FTR5 73-437): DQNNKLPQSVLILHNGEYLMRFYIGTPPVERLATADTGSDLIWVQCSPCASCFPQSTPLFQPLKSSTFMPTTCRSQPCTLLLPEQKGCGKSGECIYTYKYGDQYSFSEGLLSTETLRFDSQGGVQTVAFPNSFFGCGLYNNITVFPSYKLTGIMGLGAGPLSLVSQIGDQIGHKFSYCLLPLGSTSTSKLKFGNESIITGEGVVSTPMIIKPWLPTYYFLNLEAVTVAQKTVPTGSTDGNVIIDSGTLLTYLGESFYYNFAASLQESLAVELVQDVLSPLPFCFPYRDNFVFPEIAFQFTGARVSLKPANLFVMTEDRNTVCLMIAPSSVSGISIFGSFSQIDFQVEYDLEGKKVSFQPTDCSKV
Assay: casein degradation, SDS-PAGE densitometry
Format: biochemical
Conditions: 2 µM, casein substrate, 50 mM sodium citrate, pH 4.5, 37°C, 15 min preincubation
From the text: casein degradation, SDS-PAGE densitometry on PvNod41 (nodulin 41)

% of residual activity (n = 3): 55 (± 5) %
SMILES: CC(C)CC(=O)N[C@H](C(=O)N[C@H](C(=O)N[C@@H](CC(C)C)[C@@H](O)CC(=O)N[C@@H](C)C(=O)N[C@@H](CC(C)C)[C@@H](O)CC(=O)O)C(C)C)C(C)C [Pepstatin A] (Isovaleryl-VV[Sta]A[Sta]-OH)
